Experimental data reported in ChEMBL document CHEMBL3632533, “O-Benzoyl pyridine aldoxime and amidoxime derivatives: novel efficient DNA photo-cleavage agents” (Medchemcomm, 2015).
One block for each molecule: values may come before it. Calls of active or inactive are those of the source. No cut-off for these calls is given here.

How the values were obtained:
[1] = tested on: Enterobacteria phage lambda; experiment: Induction of Lambda phage supercoiled circular pBluescript KS II DNA cleavage assessed as single-stranded nick formation at 1000 uM preincubated for 30 mins followed by UV light irradiation under aerobic condition measured after 15 mins by agarose gel electrophoresis
[2] = tested on: Enterobacteria phage lambda; experiment: Induction of Lambda phage supercoiled circular pBluescript KS II DNA cleavage assessed as single-stranded nick formation at 500 uM preincubated for 30 mins followed by UV light irradiation under aerobic condition measured after 15 mins by agarose gel electrophoresis
[3] = tested on: Enterobacteria phage lambda; experiment: Induction of Lambda phage supercoiled circular pBluescript KS II DNA cleavage incubated for 30 mins by agarose gel electrophoresis in absence of UV light irradiation
[4] = tested on: Enterobacteria phage lambda; experiment: Induction of Lambda phage supercoiled circular pBluescript KS II DNA cleavage assessed as single-stranded nick formation at 100 uM preincubated for 30 mins followed by UV light irradiation under aerobic condition measured after 15 mins by agarose gel electrophoresis
[5] = tested on: Enterobacteria phage lambda; experiment: Induction of Lambda phage supercoiled circular pBluescript KS II DNA cleavage assessed as double-stranded nick formation at 100 uM preincubated for 30 mins followed by UV light irradiation under aerobic condition measured after 15 mins by agarose gel electrophoresis
[6] = tested on: Enterobacteria phage lambda; experiment: Induction of Lambda phage supercoiled circular pBluescript KS II DNA cleavage assessed as double-stranded nick formation at 1000 uM preincubated for 30 mins followed by UV light irradiation under aerobic condition measured after 15 mins by agarose gel electrophoresis
[7] = tested on: Enterobacteria phage lambda; experiment: Induction of Lambda phage supercoiled circular pBluescript KS II DNA cleavage assessed as single-stranded nick formation at 1 uM preincubated for 30 mins followed by UV light irradiation under aerobic condition measured after 15 mins by agarose gel electrophoresis
[8] = tested on: Enterobacteria phage lambda; experiment: Induction of Lambda phage supercoiled circular pBluescript KS II DNA cleavage preincubated for 30 mins followed by UV light irradiation under aerobic condition measured after 15 mins by agarose gel electrophoresis
[9] = tested on: Enterobacteria phage lambda; experiment: Induction of Lambda phage supercoiled circular pBluescript KS II DNA cleavage assessed as double-stranded nick formation at 500 uM preincubated for 30 mins followed by UV light irradiation under aerobic condition measured after 15 mins by agarose gel electrophoresis
[10] = tested on: Enterobacteria phage lambda; experiment: Induction of Lambda phage supercoiled circular pBluescript KS II DNA cleavage assessed as single-stranded nick formation at 100 uM preincubated for 30 mins followed by UV light irradiation measured after 15 mins by agarose gel electrophoresis in presence of argon
[11] = tested on: Enterobacteria phage lambda; experiment: Induction of Lambda phage supercoiled circular pBluescript KS II DNA cleavage assessed as single-stranded nick formation at 100 uM preincubated for 30 mins followed by UV light irradiation under aerobic condition measured after 15 mins by agarose gel electrophoresis in presence of NaN3
[12] = tested on: Enterobacteria phage lambda; experiment: Induction of Lambda phage supercoiled circular pBluescript KS II DNA cleavage assessed as double-stranded nick formation at 100 uM preincubated for 30 mins followed by UV light irradiation measured after 15 mins by agarose gel electrophoresis in presence of argon
[13] = tested on: Enterobacteria phage lambda; experiment: Induction of Lambda phage supercoiled circular pBluescript KS II DNA cleavage assessed as double-stranded nick formation at 100 uM preincubated for 30 mins followed by UV light irradiation under aerobic condition measured after 15 mins by agarose gel electrophoresis in presence of 20% DMSO
[14] = tested on: Enterobacteria phage lambda; experiment: Induction of Lambda phage supercoiled circular pBluescript KS II DNA cleavage assessed as single-stranded nick formation at 100 uM preincubated for 30 mins followed by UV light irradiation under aerobic condition measured after 15 mins by agarose gel electrophoresis in presence of D2O
[15] = tested on: Enterobacteria phage lambda; experiment: Induction of Lambda phage supercoiled circular pBluescript KS II DNA cleavage assessed as double-stranded nick formation at 100 uM preincubated for 30 mins followed by UV light irradiation under aerobic condition measured after 15 mins by agarose gel electrophoresis in presence of D2O
[16] = tested on: Enterobacteria phage lambda; experiment: Induction of Lambda phage supercoiled circular pBluescript KS II DNA cleavage assessed as single-stranded nick formation at 100 uM preincubated for 30 mins followed by UV light irradiation under aerobic condition measured after 15 mins by agarose gel electrophoresis in presence of 20% DMSO
[17] = tested on: Enterobacteria phage lambda; experiment: Induction of Lambda phage supercoiled circular pBluescript KS II DNA cleavage assessed as single-stranded nick formation at 10 uM preincubated for 30 mins followed by UV light irradiation under aerobic condition measured after 15 mins by agarose gel electrophoresis
[18] = tested on: Enterobacteria phage lambda; experiment: Induction of Lambda phage supercoiled circular pBluescript KS II DNA cleavage assessed as double-stranded nick formation at 1 uM preincubated for 30 mins followed by UV light irradiation under aerobic condition measured after 15 mins by agarose gel electrophoresis
[19] = tested on: Enterobacteria phage lambda; experiment: Induction of Lambda phage supercoiled circular pBluescript KS II DNA cleavage assessed as double-stranded nick formation at 10 uM preincubated for 30 mins followed by UV light irradiation under aerobic condition measured after 15 mins by agarose gel electrophoresis

SMILES: COc1ccc(C(=O)O/N=C/c2cccnc2)cc1
Activity [1]: 35%
Activity [2]: 29%
Activity [3]: inactive
Activity [4]: 0%

SMILES: N=C(NOC(=O)c1ccccc1)c1cccnc1
Activity [1]: 25%
Activity [2]: 25%
Activity [3]: inactive
Activity [4]: 5%

SMILES: N/C(=N\O)c1cccnc1
Activity [3]: inactive
Activity [8]: inactive

SMILES: CC(=O)O/N=C(\N)c1cccnc1
Activity [1]: 0%
Activity [2]: 6%
Activity [3]: inactive
Activity [4]: 0%

SMILES: O/N=C/c1cccnc1
Activity [3]: inactive
Activity [8]: inactive

SMILES: O=C(O/N=C/c1ccccn1)c1ccc([N+](=O)[O-])cc1
Activity [1]: 86%
Activity [5]: 10%
Activity [3]: inactive
Activity [6]: 7%
Activity [7]: 46%
Activity [4]: 83%

SMILES: O=C(O/N=C/c1cccnc1)c1ccc([N+](=O)[O-])cc1
Activity [9]: 2%
Activity [1]: 84%
Activity [10]: 85%
Activity [11]: 23%
Activity [12]: 9%
Activity [5]: 2%
Activity [2]: 81%
Activity [3]: inactive
Activity [6]: 13%
Activity [13]: 20%
Activity [14]: 85%
Activity [7]: 59%
Activity [15]: 8%
Activity [4]: 84%
Activity [16]: 75%

Next, values leading:

Activity [1]: 67%
Activity [5]: 9%
Activity [3]: inactive
Activity [6]: 33%
Activity [7]: 28%
Activity [4]: 87%
SMILES: O=C(O/N=C/c1ccncc1)c1ccc([N+](=O)[O-])cc1

Activity [1]: 36%
Activity [2]: 27%
Activity [3]: inactive
Activity [4]: 0%
SMILES: COc1ccc(C(=O)O/N=C(\N)c2cccnc2)cc1

Activity [1]: 73%
Activity [5]: 10%
Activity [3]: inactive
Activity [6]: 20%
Activity [17]: Active
Activity [18]: 15%
Activity [7]: 70%
Activity [19]: Active
Activity [4]: 85%
SMILES: NC(=NOC(=O)c1ccc([N+](=O)[O-])cc1)c1ccccn1

Activity [1]: 72%
Activity [2]: 38%
Activity [3]: inactive
Activity [6]: 1%
Activity [4]: 39%
SMILES: O=C(O/N=C/c1cccnc1)c1ccccc1

Activity [1]: 50%
Activity [5]: 7%
Activity [3]: inactive
Activity [6]: 50%
Activity [17]: Active
Activity [7]: 25%
Activity [19]: Active
Activity [4]: 75%
SMILES: N/C(=N\OC(=O)c1ccc([N+](=O)[O-])cc1)c1ccncc1

Activity [9]: 2%
Activity [1]: 64%
Activity [10]: 86%
Activity [11]: 16%
Activity [12]: 6%
Activity [5]: 4%
Activity [2]: 75%
Activity [3]: inactive
Activity [6]: 36%
Activity [13]: 5%
Activity [14]: 28%
Activity [17]: Active
Activity [18]: 4%
Activity [7]: 56%
Activity [19]: Active
Activity [4]: 81%
Activity [16]: 83%
SMILES: NC(=NOC(=O)c1ccc([N+](=O)[O-])cc1)c1cccnc1
